The target of assay [1] is T1, Aldehyde oxidase (Homo sapiens, UniProt Q06278).
T1 sequence (Q06278 whole entry): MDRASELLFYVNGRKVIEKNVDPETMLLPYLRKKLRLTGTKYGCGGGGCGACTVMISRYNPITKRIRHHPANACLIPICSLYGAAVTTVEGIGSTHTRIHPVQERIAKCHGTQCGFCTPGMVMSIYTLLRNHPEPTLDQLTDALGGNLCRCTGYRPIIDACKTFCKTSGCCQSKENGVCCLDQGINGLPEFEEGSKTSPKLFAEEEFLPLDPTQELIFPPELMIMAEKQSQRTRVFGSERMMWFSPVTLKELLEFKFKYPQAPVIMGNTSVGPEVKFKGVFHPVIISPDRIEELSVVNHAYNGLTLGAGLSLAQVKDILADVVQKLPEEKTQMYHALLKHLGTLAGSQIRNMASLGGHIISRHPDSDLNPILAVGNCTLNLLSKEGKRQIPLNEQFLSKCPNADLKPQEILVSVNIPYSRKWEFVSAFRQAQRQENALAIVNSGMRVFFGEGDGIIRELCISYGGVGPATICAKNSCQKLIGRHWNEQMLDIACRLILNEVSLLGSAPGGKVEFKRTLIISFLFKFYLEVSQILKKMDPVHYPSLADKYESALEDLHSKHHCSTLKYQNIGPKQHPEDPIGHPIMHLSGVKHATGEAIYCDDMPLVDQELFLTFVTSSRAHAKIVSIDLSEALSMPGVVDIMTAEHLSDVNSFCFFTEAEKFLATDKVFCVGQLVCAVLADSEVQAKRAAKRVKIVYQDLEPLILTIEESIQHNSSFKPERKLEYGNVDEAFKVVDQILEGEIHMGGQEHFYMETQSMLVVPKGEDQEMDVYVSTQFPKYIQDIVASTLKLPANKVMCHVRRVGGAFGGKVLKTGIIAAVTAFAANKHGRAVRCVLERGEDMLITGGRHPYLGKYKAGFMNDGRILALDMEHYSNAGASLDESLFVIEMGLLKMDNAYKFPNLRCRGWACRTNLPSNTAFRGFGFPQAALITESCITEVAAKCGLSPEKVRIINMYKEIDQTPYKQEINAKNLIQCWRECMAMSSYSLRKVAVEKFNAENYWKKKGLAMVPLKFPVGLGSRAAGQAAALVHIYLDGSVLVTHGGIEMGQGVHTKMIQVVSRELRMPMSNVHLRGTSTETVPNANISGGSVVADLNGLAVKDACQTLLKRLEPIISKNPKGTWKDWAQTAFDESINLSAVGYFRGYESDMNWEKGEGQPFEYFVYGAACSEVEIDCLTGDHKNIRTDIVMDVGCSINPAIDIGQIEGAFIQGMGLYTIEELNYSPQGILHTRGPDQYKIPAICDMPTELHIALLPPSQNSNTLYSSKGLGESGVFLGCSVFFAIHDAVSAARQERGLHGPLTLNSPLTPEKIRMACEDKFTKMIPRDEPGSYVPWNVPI
Nature of the assay: Mixed type inhibition of human AOX assessed as inhibitor dissociation constant by measuring changes in slope of the double reciprocal plot using phenanthridine as substrate by Michaelis-Menten analysis. The note with it: read-out: Kis.

Assay [2] concerns the target T1, Aldehyde oxidase. Nature of the assay: Mixed type inhibition of human AOX assessed as inhibitor dissociation constant by measuring changes in intercept of the double reciprocal plot using phenanthridine as substrate by Michaelis-Menten analysis. The note with it: read-out: Kii.
The target of assay [3] is T1, Aldehyde oxidase. Nature of the assay: Noncompetitive type inhibition of human AOX assessed as inhibitor dissociation constant by measuring changes in intercept of the double reciprocal plot using phthalazine as substrate by Michaelis-Menten analysis. To be noted: read-out: Kii.
Assay [4] concerns the target T1, Aldehyde oxidase. As to the kind of experiment: Noncompetitive type inhibition of human AOX assessed as inhibitor dissociation constant by measuring slope of the double reciprocal plot using phthalazine as substrate by Michaelis-Menten analysis. The note with it: read-out: Kis.

Regarding `N=C(N)c1ccccc1` [BENZAMIDINE], the results for the Ki in assay [1] and in assay [2] were 1240 µM and 1620 µM, respectively.

Turning to `CSc1ccc2c(c1)N(CCC1CCCCN1C)c1ccccc1S2` (centres undefined) [THIORIDAZINE], the Ki in assay [3] and in assay [4] was 1.3 µM in each case.
